Holding throughout (format): cell-based
Assay [1] has as its target T1, Nuclear factor NF-kappa-B complex (Homo sapiens) (UniProt Q00653+P19838+Q04206). Briefly: Inhibition of LPS-induced NF-kappaB (unknown origin) expressed in HEK293 cells at 1 ug/ml after 4 hrs by luciferase reporter gene assay relative to LPS-treated control. (In general: A reporter such as luciferase makes a cellular process visible.)
For assay [2], the target named is T1, Nuclear factor NF-kappa-B complex (Homo sapiens). Briefly: Inhibition of LPS-induced NF-kappaB (unknown origin) expressed in HEK293 cells at 10 ug/ml after 4 hrs by luciferase reporter gene assay relative to LPS-treated control.
Assay [3] has the same target. Briefly: Inhibition of LPS-induced NF-kappaB (unknown origin) expressed in HEK293 cells at 100 ug/ml after 4 hrs by luciferase reporter gene assay relative to LPS-treated control.

Among the data in ChEMBL document CHEMBL3351801, “Phragmalin-type limonoids with NF-κB inhibition from Chukrasia tabularis var. velutina” (Bioorg Med Chem Lett, 2014) are Ratio values, retold here.

SMILES strings stand for the structures.

T1 sequence (P19838 whole entry, looked up): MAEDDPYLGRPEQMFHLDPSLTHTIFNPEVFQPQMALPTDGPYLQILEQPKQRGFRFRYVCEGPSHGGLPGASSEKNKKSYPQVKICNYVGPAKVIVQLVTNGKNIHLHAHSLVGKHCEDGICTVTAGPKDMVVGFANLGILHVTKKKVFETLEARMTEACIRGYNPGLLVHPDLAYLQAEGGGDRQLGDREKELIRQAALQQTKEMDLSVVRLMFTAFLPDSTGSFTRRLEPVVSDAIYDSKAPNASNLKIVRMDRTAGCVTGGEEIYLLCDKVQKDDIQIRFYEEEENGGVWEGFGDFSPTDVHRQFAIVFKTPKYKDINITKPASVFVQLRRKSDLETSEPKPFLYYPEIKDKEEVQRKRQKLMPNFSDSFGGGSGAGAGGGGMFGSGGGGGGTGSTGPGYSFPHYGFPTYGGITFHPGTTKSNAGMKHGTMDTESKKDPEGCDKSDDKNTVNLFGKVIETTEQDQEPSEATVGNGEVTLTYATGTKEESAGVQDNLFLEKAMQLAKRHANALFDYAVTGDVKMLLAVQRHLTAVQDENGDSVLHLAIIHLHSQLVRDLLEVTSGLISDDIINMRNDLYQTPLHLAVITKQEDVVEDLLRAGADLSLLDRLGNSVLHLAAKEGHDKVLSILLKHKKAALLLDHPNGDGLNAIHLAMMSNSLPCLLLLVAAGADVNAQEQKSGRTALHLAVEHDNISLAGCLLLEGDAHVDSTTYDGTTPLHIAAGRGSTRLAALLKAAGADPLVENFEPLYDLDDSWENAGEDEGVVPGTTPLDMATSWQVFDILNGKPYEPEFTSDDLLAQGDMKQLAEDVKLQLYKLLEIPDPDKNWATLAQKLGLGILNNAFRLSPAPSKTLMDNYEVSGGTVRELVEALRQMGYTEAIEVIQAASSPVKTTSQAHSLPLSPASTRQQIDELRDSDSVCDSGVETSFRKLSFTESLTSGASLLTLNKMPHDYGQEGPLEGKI
T1 sequence (Q00653 whole entry, looked up): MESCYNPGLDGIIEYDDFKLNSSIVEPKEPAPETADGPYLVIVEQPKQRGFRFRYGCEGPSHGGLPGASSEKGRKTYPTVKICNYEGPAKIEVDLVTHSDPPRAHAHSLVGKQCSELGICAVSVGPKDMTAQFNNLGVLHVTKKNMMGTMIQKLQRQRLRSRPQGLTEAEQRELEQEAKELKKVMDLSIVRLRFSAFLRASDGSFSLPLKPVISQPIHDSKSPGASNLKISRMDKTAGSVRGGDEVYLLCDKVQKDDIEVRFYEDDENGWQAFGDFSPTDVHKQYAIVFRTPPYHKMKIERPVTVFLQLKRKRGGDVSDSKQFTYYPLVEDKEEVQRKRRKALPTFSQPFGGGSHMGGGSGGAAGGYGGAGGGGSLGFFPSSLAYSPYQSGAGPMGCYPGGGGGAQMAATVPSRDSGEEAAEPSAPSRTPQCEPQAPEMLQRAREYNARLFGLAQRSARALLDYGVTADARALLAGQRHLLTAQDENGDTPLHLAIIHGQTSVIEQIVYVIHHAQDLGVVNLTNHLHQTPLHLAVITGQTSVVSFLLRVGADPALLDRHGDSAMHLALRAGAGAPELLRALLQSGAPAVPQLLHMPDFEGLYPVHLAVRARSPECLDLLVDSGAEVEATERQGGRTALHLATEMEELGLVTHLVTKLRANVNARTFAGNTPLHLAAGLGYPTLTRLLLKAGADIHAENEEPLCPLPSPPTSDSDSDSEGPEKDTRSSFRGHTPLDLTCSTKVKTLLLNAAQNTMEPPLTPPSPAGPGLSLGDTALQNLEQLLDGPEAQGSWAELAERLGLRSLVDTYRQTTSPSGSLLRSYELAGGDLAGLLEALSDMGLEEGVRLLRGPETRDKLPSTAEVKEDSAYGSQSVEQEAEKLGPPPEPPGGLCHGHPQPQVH
T1 sequence (Q04206 whole entry, looked up): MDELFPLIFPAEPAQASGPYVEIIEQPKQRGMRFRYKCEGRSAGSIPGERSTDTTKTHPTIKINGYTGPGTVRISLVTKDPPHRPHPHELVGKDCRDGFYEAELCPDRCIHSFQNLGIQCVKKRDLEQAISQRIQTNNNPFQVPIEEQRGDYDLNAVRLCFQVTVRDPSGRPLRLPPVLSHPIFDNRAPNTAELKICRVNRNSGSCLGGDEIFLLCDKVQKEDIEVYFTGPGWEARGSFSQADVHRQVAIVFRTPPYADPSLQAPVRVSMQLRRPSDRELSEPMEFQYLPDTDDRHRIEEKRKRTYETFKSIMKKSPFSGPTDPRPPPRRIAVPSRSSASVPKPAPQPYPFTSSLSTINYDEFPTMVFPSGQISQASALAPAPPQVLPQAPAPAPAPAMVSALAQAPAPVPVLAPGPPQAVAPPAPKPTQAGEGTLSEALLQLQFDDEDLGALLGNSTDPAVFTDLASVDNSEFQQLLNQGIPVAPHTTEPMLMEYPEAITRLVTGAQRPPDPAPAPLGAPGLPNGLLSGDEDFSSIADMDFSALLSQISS

Take `COC(=O)[C@H](O)[C@H]1[C@]2(C)C[C@]3(O)[C@@](O)([C@H]4OC5(C)C[C@@H]6[C@](C)([C@@H](OC(C)=O)c7ccoc7)[C@@H](OC(C)=O)[C@@H](OC(C)=O)[C@@](O)([C@@]64O5)[C@]13C)[C@H]2O`: the Ratio came to 0.33 in assay [1], 0.2 in assay [2] and 0.56 in assay [3].
Consider `COC(=O)C[C@H]1[C@]2(C)C[C@]3(O)[C@@](O)([C@@H](OC(=O)C(C)C)[C@]45OC6(C)O[C@H]([C@H](OC(C)=O)[C@]78C[C@@]74[C@@H](OC(C)=O)C(=O)O[C@H]8c4ccoc4)[C@]5(O6)[C@]13C)[C@H]2OC(C)=O`, for which the Ratio in assay [1] came out at 0.12; in assay [2], 0.32; in assay [3], 0.35.
Consider `COC(=O)[C@H](OC(C)=O)[C@H]1[C@]2(C)C[C@]3(O)[C@@](O)([C@@H](OC(=O)C(C)C)[C@]45OC6(C)O[C@H]([C@H](OC(C)=O)[C@]78C[C@@]74[C@@H](OC(C)=O)C(=O)O[C@H]8c4ccoc4)[C@]5(O6)[C@]13C)[C@H]2OC(C)=O`, for which the Ratio was determined as 0.37 in assay [1], 0.55 in assay [2] and 0.62 in assay [3].
As to `CC(=O)O[C@@H]1[C@H](OC(C)=O)[C@@](C)([C@@H](OC(C)=O)c2ccoc2)[C@H]2CC3(C)O[C@@H]4[C@@]5(OC(C)=O)[C@@H](OC(C)=O)[C@@]6(C)C[C@@]5(O)[C@]5(COC(=O)C[C@@H]65)[C@]1(O)[C@@]24O3`, the Ratio was 0.25 in assay [1], 0.27 in assay [2] and 0.42 in assay [3].
Regarding `CCC12C[C@@H]3[C@](C)([C@@H](OC(C)=O)c4ccoc4)[C@@H](OC(C)=O)[C@@H](OC(C)=O)[C@@]4(O)[C@]3(O1)[C@H](O2)[C@@]1(O)[C@@H](OC(C)=O)[C@@]2(C)C[C@@]1(O)[C@]41COC(=O)C[C@@H]21`, the values for the Ratio in assay [1], in assay [2] and in assay [3] were 0.16, 0.26 and 0.31, respectively.
Taken in the same sequence, the figures for `COC(=O)[C@H](OC(C)=O)[C@H]1[C@]2(C)C[C@]3(O)[C@@](O)([C@@H](OC(=O)C(C)C)[C@]45OC6(C)O[C@H]([C@H](O)[C@]78C[C@@]74[C@@H](OC(C)=O)C(=O)O[C@H]8c4ccoc4)[C@]5(O6)[C@]13C)[C@H]2OC(C)=O` were 0.05, 0.1 and 0.1.
Regarding `COC(=O)C[C@H]1[C@]2(C)C[C@]3(O)[C@@](OC(C)=O)([C@H]4OC5(C)C[C@@H]6[C@](C)([C@@H](OC(C)=O)c7ccoc7)[C@@H](OC(C)=O)[C@@H](OC(C)=O)[C@@](O)([C@@]64O5)[C@]13C)[C@H]2OC(C)=O`, the Ratio in assay [1] is 0.21; in assay [2], 0.33; in assay [3], 0.32.
`COC(=O)C[C@H]1[C@]2(C)C[C@]3(O)[C@@](O)([C@H]4OC(C)=C[C@@H]5[C@](C)([C@@H](OC(C)=O)c6ccoc6)[C@@H](OC(C)=O)[C@@H](OC(C)=O)[C@]6(OC(=O)O[C@]546)[C@]13C)[C@H]2O`: the results for the Ratio in assay [1], in assay [2] and in assay [3] were 0.69, 0.57 and 0.86, respectively.
Take `COC(=O)C[C@H]1[C@]2(C)C[C@]3(O)[C@@](O)([C@@H](OC(=O)C(C)C)[C@]45OC6(C)O[C@H]([C@H](O)[C@]78C[C@@]74[C@@H](OC(C)=O)C(=O)O[C@H]8c4ccoc4)[C@]5(O6)[C@]13C)[C@H]2OC(C)=O`: the Ratio was 0.1 in assay [1], 0.1 in assay [2] and 0.17 in assay [3].
